Laboratory results as given in patent US20260159474A1, “Aminoindane Compounds and Compositions and Methods of Their Therapeutic Use” (Solvonis Therapeutics Ireland Holdings Limited, priority 2021, published 2026).
Converted amounts (≈) assume the structure as drawn.

Columns and labels:
[1] = Brain tissue binding by equilibrium dialysis, rat brain homogenate; type: in vitro ADME; settings: male, Sprague Dawley, pH 7.4, read-out: Rat brain tissue binding (Fu %)
Protocol: Methods: Plasma protein binding and blood tissue binding of test items (0.5 μM) was determined using biological samples from male Sprague Dawley (SD) rats and humans. […] Dexamethasone was used as a control compound for lung tissue binding. Various biological samples were spiked with test compounds according to the methods that follow.
Preparation of brain homogenate samples: Test items were dissolved in DMSO (or an appropriate solvent) to give a 10 mM solution. Further dilutions, to obtain […] working solutions (WS), were then prepared using 50% acetonitrile in Milli Q water. These 100×WS were used to spike the brain homogenate to obtain a final concentration of 5 μM. From this initial spiking solution, control samples (n=3) referred to as T=0, were immediately extracted by protein precipitation.
An equilibrium dialysis method was performed to determine protein binding in the various biological samples described herein. Materials were prepared and methods were in accordance with the following procedures.
Membranes were prepared for use in the equilibrium dialysis experiment. by soaking in deionized water for at least 60 minutes. After this period, 20% of pure ethanol was added, and the membranes were left in this solution for at least 20 minutes. The membranes were then rinsed in Milli-Q water prior to use.
To initiate the experiment, 150 μL of test item-free buffer (isotonic phosphate buffer for plasma and blood, artificial CSF buffer for brain or HBSS buffer for lung) was dispensed on one half-well of a 96-well dialyzer apparatus (HTDialysis LLC), and 150 μL of spiked matrix (plasma, blood, brain or lung) was loaded on the other half-well. Alternative volumes may be used according to the operating instructions of HTDialysis.
The artificial cerebrospinal fluid (CSF) buffer was prepared as follows, NaCl 3.652 g, KCl 93.2 mg, MgCl2 119.96 mg, CaCl2 92.61 mg, Na2HPO4*H2O 268.0 mg. These were dissolved in […] of MilliQ water, and the pH was adjusted to a pH of 7.4 with H3PO4.
Dialysis buffer was prepared by dissolving Na2HPO4 8.69 g, KH2PO4 1.90 g, and NaCl 4.11 g in […] of MilliQ water, and adjusting the pH to 7.4 with H3PO4. […]
Samples were then injected onto an HPLC MS/MS or UPLC MS/MS system. In order to control the integrity of the membrane after the dialysis process, the presence of protein was assessed in the buffer compartment. […]
Samples were analyzed in a LC-MS/MS system using an analytical method to monitor the compound to internal standard peak area ratios as representative of the compound concentrations. Alternatively, samples were analyzed by RapidFire. […]

human 5-HT2A receptor = target: T1, human 5-HT2A receptor (Homo sapiens, UniProt P28223); experiment: Intracellular calcium response (FLIPR) in CHO cells expressing human 5-HT2A receptor; type: cell-based; settings: n=2; for 5-HT2A agonist mode pEC50: intracellular calcium; for 5-HT2A antagonist mode pIC50: inhibition of serotonin EC80 response
T1 construct: expressed in transfected cells; host or cells: CHO
T1 sequence (P28223 whole entry): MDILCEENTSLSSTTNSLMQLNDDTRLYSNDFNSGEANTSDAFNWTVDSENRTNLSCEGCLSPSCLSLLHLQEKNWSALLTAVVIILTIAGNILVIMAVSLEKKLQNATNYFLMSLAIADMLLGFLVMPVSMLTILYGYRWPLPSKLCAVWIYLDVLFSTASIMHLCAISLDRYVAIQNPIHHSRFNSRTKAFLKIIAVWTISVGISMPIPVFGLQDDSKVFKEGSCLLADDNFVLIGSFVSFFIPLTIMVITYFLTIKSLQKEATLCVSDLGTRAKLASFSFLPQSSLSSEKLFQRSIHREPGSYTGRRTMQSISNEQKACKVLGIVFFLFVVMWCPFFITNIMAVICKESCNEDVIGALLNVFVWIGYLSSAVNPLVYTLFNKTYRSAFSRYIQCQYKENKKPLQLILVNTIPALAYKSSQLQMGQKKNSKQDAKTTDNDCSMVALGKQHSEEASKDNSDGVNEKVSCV
Protocol: Methods: Selectivity for the 5-HT2A receptor was assessed by measuring [ICa2+]i in a CHO recombinant cell line stably expressing the human 5-HT2A receptor, using a Fluorometric Imaging Plate Reader (FLIPR TETRA, Molecular Devices).
The day before the experiment, CHO cells were seeded into black-wells clear-bottom 384-well plates at a density of 10,000 cells per well, in F-12K Medium (ThermoFisher #21127) supplemented with 10% dialyzed fetal bovine serum, and grown overnight at 37° C., 5% C02.
On the day of the experiment, the medium was replaced with assay buffer (20 miM HEPES, 145 mM NaCl, 5 mM KCl, 5.5 mM glucose, 1 mM MgCl2, 2 mM CaCl2 and 2.5 mM probenecid, pH 7.4) containing the cytoplasmic Ca2+ indicator Fluo-4 AM at 2 μM and 0.02% Pluronic F-127. After an incubation of 45-60 minutes at 37° C., 0% C02, cells were washed by Microplate Washer (BIOTEK) 384 with assay buffer, and the plate was transferred to the FLIPR TETRA. Then, intracellular fluorescence was measured in real time by FLIPR TETRA (excitation wavelength at 470-495 nm, emission wavelength at 515-575 nm), using a dual addition protocol.
In the first addition, test compounds (11 points of 1:4 serial dilution, 0.5% DMSO final) were added to the cell plate to evaluate their effect on intracellular calcium levels. In the event of a response, the signal was elaborated for the determination of pEC50/EC50 values.

[2] = Solubility in PBS (pH 7.4), HPLC-UV; type: physicochemical; settings: for solubility at 120 min: PBS pH 7.4, room temperature, 2% DMSO; for Characterization (solubility class): PBS pH 7.4
Protocol: Stock solutions of therapeutic compounds (20 mM) were prepared in DMSO, on the same day of the experiment when feasible. These solutions were compared with an external standard solution of known concentration via HPLC-UV. To prepare the standard, 4 μL from a 20 mM compound stock solution was added to DMSO in a vial/well, and mixed with shaking at room temperature for 10 minutes. The standard buffer used for the assessment was PBS buffer (pH 7.4), but alternative buffers may also be used, such as biologically relevant Fluids, including Simulated Gastric fluid (SGF) at pH 1.2, Fasted State Simulated Intestinal Fluid (FaSSIF) at pH 6.5, and Fed State Simulated Intestinal Fluid (FeSSIF) at pH 5.0.
An isotonic phosphate buffer (iPBS) was prepared by dissolving a phosphate buffered saline tab (Sigma-Aldrich P4417-50Tab) in 200 mL of deionized water, the final composition of the solution being 10 mM PBS, 2.7 mM kCl, and 137 mM NaCl, yielding a final pH of 7.4 at 25° C. Samples were prepared by dispensing 8 μL from a 20 mM compound stock solution in DMSO in a vial/well in duplicate, adding 392 μL of buffer in each vial/well, and mixed by shaking at room temperature for 120 minutes. The final compound concentration was approximately 400 μM, while the final concentration of DMSO was about 2%. The solutions were then filtered prior to analysis.
Concentrations were determined by comparing UV absorbance of the test solution and of the known standard solution following HPLC separation using a generic fast gradient method employing a DAD detector and UV detection at 230 and 254 nm. Concerning the HPLC Mobile phase, Phase A was a 50 mM ammonium acetate aqueous solution (pH adjusted to 7.4 with ammonia), and Phase B was acetonitrile. For data analysis, chromatographic peaks were automatically integrated, and the parameters were optimized to enable consistent integration of all chromatograms in the entire analytical run. The solubility of each compound was expressed as the ratio of compound amount in the sample test solution to the amount of compound in the standard solution, calculated from the equation “solubility of sample=peak area of sample/peak area of standard×concentration of standard.”

[3] = PBS buffer, aqueous buffer, kinetic from dmso stock

SMILES	fraction unbound at 5 h, 5 μM [1]	5-HT2A agonist mode pEC50 (human 5-HT2A receptor)	5-HT2A antagonist mode pIC50 (human 5-HT2A receptor)	solubility at 120 min [2, 3] [µM]	Characterization (solubility class) [2]	solubility at 120 min [2] [µM]
COC(=O)c1cc2c(cc1OC)CC(N)C2 (stereo not shown) [CMP-401]	> 0.5					
COC(=O)c1ccc2c(c1)CC(N)C2 (stereo not shown) [CMP-405, 2-aminoindane-5-methylcarboxylate]	0.24	comparable to MDMA	comparable to MDMA	392 (≈ 75 µg/mL)	High solubility	
CNC(C)Cc1ccc2c(c1)OCO2 (stereo not shown) [MDMA]		less than 4.3	less than 4.3		High solubility	386 (≈ 74.6 µg/mL)
COc1ccc2c(c1)CC(N)C2 (stereo not shown) [MEAI, 5-methoxy-2-aminoindane]	0.33	comparable to MDMA	comparable to MDMA	374 (≈ 61 µg/mL)	High solubility	
COc1cc2c(cc1C)CC(N)C2 (stereo not shown) [MMAI, 5-methoxy-6-methyl-2-aminoindane]	0.12					
